The source of these data is patent publication US10300071B2, “Compositions and methods for inhibition of mycobacteria” (priority 2014, dated 2019).

Series [1] concerns S. cerevisiae.
For series [2], the system named is Mtb strain mc^2-7000. The series is described as follows: microbe, parasite or virus in culture. Format: cell-based, Mycobacterium tuberculosis. The note with it: Mycobacterium tuberculosis, 144 h; 6 days incubation at 37° C., resazurin, read on the 7th day; read-out: MIC.
Series [3] relates to human fibroblast.
Series [4] concerns the target Mtb AccD6 (Mycobacterium tuberculosis, UniProt P9WQH5). Briefly: biochemical. It counts as biochemical. Particulars: for IC50: 300 μM malonyl-CoA, inhibitor 10 μM to 2000 μM, read-out: IC50.

In brackets after ≈: the same amount, converted by molar mass. Some results are limits rather than exact numbers.

Mtb AccD6, sequence (P9WQH5 whole entry, looked up): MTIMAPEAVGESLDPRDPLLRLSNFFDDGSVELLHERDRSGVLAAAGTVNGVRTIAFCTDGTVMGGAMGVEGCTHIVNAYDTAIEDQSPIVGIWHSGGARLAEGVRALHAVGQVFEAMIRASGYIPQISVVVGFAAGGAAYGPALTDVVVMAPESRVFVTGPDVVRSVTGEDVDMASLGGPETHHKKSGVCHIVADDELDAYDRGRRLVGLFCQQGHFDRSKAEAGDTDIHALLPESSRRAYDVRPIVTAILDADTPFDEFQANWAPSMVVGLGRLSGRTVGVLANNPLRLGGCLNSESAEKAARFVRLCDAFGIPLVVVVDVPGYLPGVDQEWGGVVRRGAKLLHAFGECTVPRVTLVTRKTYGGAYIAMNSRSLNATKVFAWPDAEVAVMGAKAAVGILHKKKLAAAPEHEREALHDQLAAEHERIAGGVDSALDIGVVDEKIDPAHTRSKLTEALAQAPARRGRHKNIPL

Regarding `CONC(=O)C(C)c1ccc(Oc2nc3ccc(F)cc3s2)cc1` (racemic) [NZ-330, 2-{4-[(6-fluoro-1,3-benzothiazol-2-yl)oxy]phenyl}-N-methoxypropanamide], in series [1], the “concentrations at which not toxic, s. cerevisiae cytotoxicity” value was at least 100 µM. In series [2], the MIC amounted to 1.5 µM (≈ 0.52 µg/mL). Moreover, the “concentrations at which not toxic, human fibroblast cytotoxicity” value in series [3] was at least 100 µM. In series [4], the concentration for half-maximal inhibition (IC50) was determined as 240 nM.

Take `CCOC(=O)[C@@H](C)Oc1ccc(Oc2nc3ccc(F)cc3s2)cc1` [NZ-251, ethyl (2R)-2-{4-[(6-fluoro-1,3-benzothiazol-2-yl)oxy]phenoxy}propanoate]: in series [1], the “concentrations at which not toxic, s. cerevisiae cytotoxicity” value was at least 100 µM. For the same compound, the MIC in series [2] amounted to 0.23 µM (≈ 0.0831 µg/mL). In addition, in series [3], the “concentrations at which not toxic, human fibroblast cytotoxicity” value is at least 100 µM.

As for `CONC(=O)COc1ccc(Oc2cnc3cc(Cl)ccc3n2)cc1` [NZ-274, 2-{4-[(6-chloroquinoxalin-2-yl)oxy]phenoxy}-N-methoxyacetamide], the “concentrations at which not toxic, s. cerevisiae cytotoxicity” value in series [1] is at least 100 µM. Also, the MIC in series [2] came out at 0.173 µM (≈ 0.0622 µg/mL). Also, the “concentrations at which not toxic, human fibroblast cytotoxicity” value in series [3] is at least 100 µM. In addition, the IC50 in series [4] was found to be 3700 nM.

`O=C(O)Cc1ccc(Oc2nc3ccc(Cl)cc3s2)cc1` [NZ-287, 2-{4-[(6-chloro-1,3-benzothiazol-2-yl)oxy]phenyl}acetic acid]: the “concentrations at which not toxic, s. cerevisiae cytotoxicity” value in series [1] is at least 100 µM. Also, the MIC in series [2] amounted to 12 µM (≈ 3.84 µg/mL). For the same compound, the “concentrations at which not toxic, human fibroblast cytotoxicity” value in series [3] was at least 100 µM. In addition, the half-maximal inhibitory concentration (IC50) in series [4] was 520 nM.

With `CON(C)C(=O)COc1ccc(Oc2cnc3cc(Cl)ccc3n2)cc1` [NZ-290, 2-{4-[(6-chloroquinoxalin-2-yl)oxy]phenoxy}-N-methoxy-N-methylacetamide], the “concentrations at which not toxic, s. cerevisiae cytotoxicity” value in series [1] is at least 100 µM. Further, the MIC in series [2] stood at 1.5 µM (≈ 0.561 µg/mL). In series [3], the “concentrations at which not toxic, human fibroblast cytotoxicity” value was at least 100 µM. The half-inhibitory concentration (IC50) in series [4] came out at 2500 nM.

As to `CONC(=O)Cc1ccc(Oc2nc3ccc(Cl)cc3s2)cc1` [NZ-293, 2-{4-[(6-chloro-1,3-benzothiazol-2-yl)oxy]phenyl}-N-methoxyacetamide], the “concentrations at which not toxic, s. cerevisiae cytotoxicity” value in series [1] is at least 100 µM. In series [2], the MIC was 3 µM (≈ 1.05 µg/mL). Also, in series [3], the “concentrations at which not toxic, human fibroblast cytotoxicity” value was at least 100 µM. The IC50 in series [4] amounted to 1000 nM.

For the compound `COC(=O)Cc1ccc(Oc2nc3ccc(F)cc3s2)cc1` [NZ-294, methyl 2-{4-[(6-fluoro-1,3-benzothiazol-2-yl)oxy]phenyl}acetate], the “concentrations at which not toxic, s. cerevisiae cytotoxicity” value in series [1] is at least 100 µM. The MIC in series [2] came out at 3 µM. Besides, the “concentrations at which not toxic, human fibroblast cytotoxicity” value in series [3] is at least 100 µM. Besides, the IC50 in series [4] stood at 12500 nM.

As for `CONC(=O)[C@@H](C)Oc1ccc(Oc2cnc3cc(Cl)ccc3n2)cc1` [NZ-295, (2R)-2-{4-[(6-chloroquinoxalin-2-yl)oxy]phenoxy}-N-methoxypropanamide], the “concentrations at which not toxic, s. cerevisiae cytotoxicity” value in series [1] was at least 100 µM. Also, the MIC in series [2] is 4.5 µM (≈ 1.68 µg/mL). For the same compound, the “concentrations at which not toxic, human fibroblast cytotoxicity” value in series [3] was at least 100 µM. Besides, the 50% inhibitory concentration (IC50) in series [4] is 930 nM.

On to `O=C(O)Cc1ccc(Oc2cnc3cc(Cl)ccc3n2)cc1` [NZ-298, 2-{4-[(6-chloroquinoxalin-2-yl)oxy]phenyl}acetic acid], for which the “concentrations at which not toxic, s. cerevisiae cytotoxicity” value in series [1] was at least 100 µM. Besides, the MIC in series [2] is 25 µM (≈ 7.87 µg/mL). Also, the “concentrations at which not toxic, human fibroblast cytotoxicity” value in series [3] is at least 100 µM. Also, in series [4], the half-maximal inhibitory concentration (IC50) was 280 nM.

Turning to `O=C(O)Cc1ccc(Oc2nc3ccc(F)cc3s2)cc1` [NZ-299, 2-{4-[(6-fluoro-1,3-benzothiazol-2-yl)oxy]phenyl}acetic acid], the “concentrations at which not toxic, s. cerevisiae cytotoxicity” value in series [1] is at least 100 µM. In addition, in series [2], the MIC came out at 12 µM (≈ 3.64 µg/mL). Also, in series [3], the “concentrations at which not toxic, human fibroblast cytotoxicity” value is at least 100 µM. Further, the IC50 in series [4] worked out at 324 nM.

Take `CONC(=O)Cc1ccc(Oc2nc3ccc(F)cc3s2)cc1` [NZ-300, 2-{4-[(6-fluoro-1,3-benzothiazol-2-yl)oxy]phenyl}-N-methoxyacetamide]: the “concentrations at which not toxic, s. cerevisiae cytotoxicity” value in series [1] is at least 100 µM. Also, the MIC in series [2] is 7.5 µM (≈ 2.49 µg/mL). The “concentrations at which not toxic, human fibroblast cytotoxicity” value in series [3] is at least 100 µM. In series [4], the 50% inhibitory concentration (IC50) is 820 nM.

Turning to `CONC(=O)Cc1ccc(Oc2cnc3cc(Cl)ccc3n2)cc1` [NZ-301, 2-{4-[(6-chloroquinoxalin-2-yl)oxy]phenyl}-N-methoxyacetamide], the “concentrations at which not toxic, s. cerevisiae cytotoxicity” value in series [1] was at least 100 µM. Further, the MIC in series [2] turned out to be 12 µM (≈ 4.13 µg/mL). Further, the “concentrations at which not toxic, human fibroblast cytotoxicity” value in series [3] is at least 100 µM. The 50% inhibitory concentration (IC50) in series [4] was found to be 265 nM.

Turning to `O=C(O)COc1ccc(Oc2nc3ccc(F)cc3s2)cc1` [NZ-304, 2-{4-[(6-fluoro-1,3-benzothiazol-2-yl)oxy]phenoxy}acetic acid], the “concentrations at which not toxic, s. cerevisiae cytotoxicity” value in series [1] is at least 100 µM. In series [2], the MIC was 25 µM (≈ 7.98 µg/mL). The “concentrations at which not toxic, human fibroblast cytotoxicity” value in series [3] was at least 100 µM. Besides, the IC50 in series [4] came out at 3400 nM.

Consider `CONC(=O)COc1ccc(Oc2nc3ccc(F)cc3s2)cc1` [NZ-305, 2-{4-[(6-fluoro-1,3-benzothiazol-2-yl)oxy]phenoxy}-N-methoxyacetamide], for which the “concentrations at which not toxic, s. cerevisiae cytotoxicity” value in series [1] is at least 100 µM. In addition, the MIC in series [2] amounted to 3 µM (≈ 1.05 µg/mL). In addition, the “concentrations at which not toxic, human fibroblast cytotoxicity” value in series [3] was at least 100 µM. The compound further registered an inhibition at 15 µM in series [4] (15 uM) of 50%.

As to `CCNC(=O)COc1ccc(Oc2cnc3cc(Cl)ccc3n2)cc1` [NZ-306, 2-{4-[(6-chloroquinoxalin-2-yl)oxy]phenoxy}-N-ethylacetamide], in series [1], the “concentrations at which not toxic, s. cerevisiae cytotoxicity” value is at least 100 µM. In series [2], the MIC turned out to be 25 µM (≈ 8.94 µg/mL). Moreover, the “concentrations at which not toxic, human fibroblast cytotoxicity” value in series [3] is at least 100 µM. Further, in series [4], the IC50 turned out to be 4600 nM.

`CC(C)NC(=O)COc1ccc(Oc2cnc3cc(Cl)ccc3n2)cc1` [NZ-307, 2-{4-[(6-chloroquinoxalin-2-yl)oxy]phenoxy}-N-(propan-2-yl)acetamide]: the “concentrations at which not toxic, s. cerevisiae cytotoxicity” value in series [1] was at least 100 µM. Moreover, the MIC in series [2] was 3 µM (≈ 1.12 µg/mL). Moreover, in series [3], the “concentrations at which not toxic, human fibroblast cytotoxicity” value was at least 100 µM. Moreover, the concentration for half-maximal inhibition (IC50) in series [4] was 2500 nM.

On to `COC(=O)C(C)c1ccc(Oc2cnc3cc(Cl)ccc3n2)cc1` (centres unmarked) [NZ-308, methyl 2-{4-[(6-chloroquinoxalin-2-yl)oxy]phenyl}propanoate], for which, in series [1], the “concentrations at which not toxic, s. cerevisiae cytotoxicity” value is at least 100 µM. In addition, the MIC in series [2] stood at 4.5 µM (≈ 1.54 µg/mL). Further, in series [3], the “concentrations at which not toxic, human fibroblast cytotoxicity” value was at least 100 µM. Besides, the IC50 in series [4] was determined as 8000 nM.

Take `CC(C(=O)O)c1ccc(Oc2cnc3cc(Cl)ccc3n2)cc1` (centres unmarked) [NZ-309, 2-{4-[(6-chloroquinoxalin-2-yl)oxy]phenyl}propanoic acid]: in series [1], the “concentrations at which not toxic, s. cerevisiae cytotoxicity” value is at least 100 µM. The MIC in series [2] was 12 µM (≈ 3.95 µg/mL). The “concentrations at which not toxic, human fibroblast cytotoxicity” value in series [3] is at least 100 µM. In addition, the IC50 in series [4] amounted to 172 nM.

Consider `CONC(=O)C(C)c1ccc(Oc2cnc3cc(Cl)ccc3n2)cc1` (centres unmarked) [NZ-310, 2-{4-[(6-chloroquinoxalin-2-yl)oxy]phenyl}-N-methoxypropanamide], for which the “concentrations at which not toxic, s. cerevisiae cytotoxicity” value in series [1] is at least 100 µM. Further, the MIC in series [2] was found to be 6 µM (≈ 2.15 µg/mL). For the same compound, in series [3], the “concentrations at which not toxic, human fibroblast cytotoxicity” value was at least 100 µM. Moreover, the IC50 in series [4] is 182 nM.

For the compound `CC(C(=O)O)c1ccc(Oc2nc3ccc(Cl)cc3s2)cc1` (centres unmarked) [NZ-312, 2-{4-[(6-chloro-1,3-benzothiazol-2-yl)oxy]phenyl}propanoic acid], the “concentrations at which not toxic, s. cerevisiae cytotoxicity” value in series [1] is at least 100 µM. The MIC in series [2] came to 6 µM (≈ 2 µg/mL). In addition, the “concentrations at which not toxic, human fibroblast cytotoxicity” value in series [3] was at least 100 µM. Also, in series [4], the half-maximal inhibitory concentration (IC50) was found to be 260 nM.

With `COC(=O)C(C)(C)Oc1ccc(Oc2cnc3cc(Cl)ccc3n2)cc1` [NZ-314, methyl 2-{4-[(6-chloroquinoxalin-2-yl)oxy]phenoxy}-2-methylpropanoate], the “concentrations at which not toxic, s. cerevisiae cytotoxicity” value in series [1] is at least 100 µM. Besides, the MIC in series [2] amounted to 6 µM (≈ 2.24 µg/mL). The “concentrations at which not toxic, human fibroblast cytotoxicity” value in series [3] was at least 100 µM. Besides, the IC50 in series [4] came out at 17500 nM.

For the compound `CONC(=O)C(C)(C)Oc1ccc(Oc2cnc3cc(Cl)ccc3n2)cc1` [NZ-316, 2-{4-[(6-chloroquinoxalin-2-yl)oxy]phenoxy}-N-methoxy-2-methylpropanamide], the “concentrations at which not toxic, s. cerevisiae cytotoxicity” value in series [1] was at least 100 µM. Besides, the MIC in series [2] is 6 µM (≈ 2.33 µg/mL). In series [3], the “concentrations at which not toxic, human fibroblast cytotoxicity” value is at least 100 µM.

Take `COC(=O)C(C)(C)Oc1ccc(Oc2nc3ccc(Cl)cc3s2)cc1` [NZ-317, methyl 2-{4-[(6-chloro-1,3-benzothiazol-2-yl)oxy]phenoxy}-2-methylpropanoate]: the “concentrations at which not toxic, s. cerevisiae cytotoxicity” value in series [1] is at least 100 µM. Moreover, the MIC in series [2] came to 6 µM (≈ 2.27 µg/mL). Besides, the “concentrations at which not toxic, human fibroblast cytotoxicity” value in series [3] was at least 100 µM.

Take `CONC(=O)C(C)c1ccc(Oc2nc3ccc(OC)cc3s2)cc1` (centres unmarked) [NZ-335, N-methoxy-2-{4-[(6-methoxy-1,3-benzothiazol-2-yl)oxy]phenyl}propanamide]: in series [1], the “concentrations at which not toxic, s. cerevisiae cytotoxicity” value is at least 100 µM. Further, the MIC in series [2] stood at 12 µM (≈ 4.3 µg/mL). The “concentrations at which not toxic, human fibroblast cytotoxicity” value in series [3] is at least 100 µM.

Take `COC(=O)C(O)c1ccc(Oc2nc3ccc(Cl)cc3s2)cc1` (centres unmarked) [NZ-336, methyl 2-{4-[(6-chloro-1,3-benzothiazol-2-yl)oxy]phenyl}-2-hydroxyacetate]: in series [1], the “concentrations at which not toxic, s. cerevisiae cytotoxicity” value lay in the range of 50 to 100 µM. In addition, in series [2], the MIC came to 12 µM (≈ 4.2 µg/mL). Besides, the “concentrations at which not toxic, human fibroblast cytotoxicity” value in series [3] lay in the range of 50 to 100 µM.

For `CC(C)NC(=O)Nc1ccc(Oc2nc3cc(Cl)c(Cl)cc3s2)cc1` [NZ-393, 1-{4-[(5,6-dichloro-1,3-benzothiazol-2-yl)oxy]phenyl}-3-(propan-2-yl)urea], the “concentrations at which not toxic, s. cerevisiae cytotoxicity” value in series [1] is at least 100 µM. The “concentrations at which not toxic, human fibroblast cytotoxicity” value in series [3] was at least 100 µM. The concentration for half-maximal inhibition (IC50) in series [4] was determined as 5070 nM.

The IC50 is the point on the concentration scale where inhibition reaches its midpoint. By inhibition is commonly meant the relative decrease from the control value, in per cent. Read a high inhibition as a strong effect.
